The values below come from US7157487B2, “Vla-4 inhibitors” (Daiichi Pharmaceutical Co., Ltd., priority 2000, dated 2007).

pKi: −log10 of the molar value.

System in the first data set: not listed separately
The experiment in a line: Evaluation of oral bioavailability by mouse bioassay. It counts as in vivo. To be noted: 10 mg/kg oral, female Balb/C mice, serum 15 minutes after administration, read-out: Blood level. On the procedure: A test compound was suspended or dissolved in a proper administration medium to give a concentration of 1 mg/ml. To 7 to 9 week old female Balb/C mice, 10 mg/kg of the resulting suspension or solution was orally administered. Fifteen minutes after the administration, blood was collected from the postcava under anesthesia with ether and the serum was separated from it. The concentration of each test compound was determined by estimating the serum level from a calibration curve obtained with VCAM-1/VLA-4 inhibitory activity as an index or measuring the concentration by using LC/MS/MS.
`O=C(Nc1ccc(CC(=O)N2C[C@@H](F)C[C@H]2CO[C@H]2CC[C@H](C(=O)O)CC2)cc1Cl)N1CCc2ccc(F)cc21` [Example 92]: the concentration at 15 min was found to be 1990 ng/mL.

The target in the next data set is T1, integrins haα4 and β1 (VLA-4) expressed on CHO cells (Homo sapiens, UniProt P05556+P13612).
T1 construct: expressed in transfected cells; host or cells: CHO cells
T1 sequence (P13612 34-1032): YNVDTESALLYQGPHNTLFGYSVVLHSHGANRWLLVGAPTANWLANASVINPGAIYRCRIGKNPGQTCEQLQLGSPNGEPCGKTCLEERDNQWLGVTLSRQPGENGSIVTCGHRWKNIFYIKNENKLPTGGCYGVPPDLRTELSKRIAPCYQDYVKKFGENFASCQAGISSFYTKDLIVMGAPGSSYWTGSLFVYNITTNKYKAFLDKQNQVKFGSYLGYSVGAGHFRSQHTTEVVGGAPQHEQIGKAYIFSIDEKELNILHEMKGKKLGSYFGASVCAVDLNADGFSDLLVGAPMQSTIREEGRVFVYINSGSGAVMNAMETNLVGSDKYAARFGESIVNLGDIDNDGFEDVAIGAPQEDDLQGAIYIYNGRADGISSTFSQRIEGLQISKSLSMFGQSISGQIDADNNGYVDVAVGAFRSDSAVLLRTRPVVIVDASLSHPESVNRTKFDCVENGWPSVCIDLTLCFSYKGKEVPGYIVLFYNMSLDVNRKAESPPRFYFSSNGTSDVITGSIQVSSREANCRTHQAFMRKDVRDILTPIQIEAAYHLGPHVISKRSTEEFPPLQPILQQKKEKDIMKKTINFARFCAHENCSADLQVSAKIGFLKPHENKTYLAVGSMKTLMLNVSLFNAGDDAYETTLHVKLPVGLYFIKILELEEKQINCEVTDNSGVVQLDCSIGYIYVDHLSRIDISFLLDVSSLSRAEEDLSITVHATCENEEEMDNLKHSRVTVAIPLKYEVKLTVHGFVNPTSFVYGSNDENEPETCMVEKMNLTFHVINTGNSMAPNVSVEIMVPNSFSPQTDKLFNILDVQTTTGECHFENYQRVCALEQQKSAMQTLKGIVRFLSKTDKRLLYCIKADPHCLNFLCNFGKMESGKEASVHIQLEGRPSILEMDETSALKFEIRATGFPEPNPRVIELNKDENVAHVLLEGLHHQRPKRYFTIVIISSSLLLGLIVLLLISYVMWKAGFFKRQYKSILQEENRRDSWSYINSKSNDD
T1 sequence (P05556 21-798): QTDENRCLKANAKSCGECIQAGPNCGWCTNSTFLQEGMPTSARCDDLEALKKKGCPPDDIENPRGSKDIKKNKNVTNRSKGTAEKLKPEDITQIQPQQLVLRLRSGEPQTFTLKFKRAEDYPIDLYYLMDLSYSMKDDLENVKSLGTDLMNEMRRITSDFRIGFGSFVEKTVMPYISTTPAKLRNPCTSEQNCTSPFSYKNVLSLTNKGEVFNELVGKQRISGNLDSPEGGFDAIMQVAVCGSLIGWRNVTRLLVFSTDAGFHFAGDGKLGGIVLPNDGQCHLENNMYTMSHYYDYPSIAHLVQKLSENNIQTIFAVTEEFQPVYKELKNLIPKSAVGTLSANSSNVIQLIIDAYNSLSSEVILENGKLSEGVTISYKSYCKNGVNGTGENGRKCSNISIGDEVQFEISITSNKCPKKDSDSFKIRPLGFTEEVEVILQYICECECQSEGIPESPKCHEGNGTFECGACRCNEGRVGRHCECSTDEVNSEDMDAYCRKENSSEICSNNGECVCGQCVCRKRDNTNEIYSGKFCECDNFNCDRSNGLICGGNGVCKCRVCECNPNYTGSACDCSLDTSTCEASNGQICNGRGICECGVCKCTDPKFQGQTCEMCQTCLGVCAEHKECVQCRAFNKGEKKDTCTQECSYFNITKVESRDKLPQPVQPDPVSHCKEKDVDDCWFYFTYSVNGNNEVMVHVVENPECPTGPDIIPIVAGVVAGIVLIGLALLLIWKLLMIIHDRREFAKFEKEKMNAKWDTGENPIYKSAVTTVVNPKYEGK
The experiment in a line: In vitro Evaluation Test (1): binding of Eu3+-hVCAM-1 D1D7-IgG to CHO cells expressing integrins α4 and β1. The note with it: inhibition of Eu3+-hVCAM-1 D1D7-IgG binding to CHO cells expressing α4β1; Ki calculated from IC50. The method, boiled down: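 CHO cells transduced with human α4 and β1 were grown for 2 days. They were incubated 1 h at room temperature with Eu3+-hVCAM-1 D1D7-IgG (diluted to 2 nM before addition) and compound, with or without 6% HSA, in HEPES pH 7.5 containing Ca2+, Mg2+ and 4 mM Mn2+. Time-resolved fluorescence gave IC50; Ki used a Scatchard-derived Kd (0.06–20 nM).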
On to `O=C(Nc1ccc(CC(=O)N2C[C@@H](F)C[C@H]2CO[C@H]2CC[C@H](C(=O)O)CC2)cc1Cl)N1CCc2ccc(F)cc21` [Example 92], for which the pKi was 8.57.

Regarding `Cn1cc(C(=O)Nc2ccc(CC(=O)N3C[C@@H](F)C[C@H]3COc3ccc(C(=O)O)cc3)cc2Cl)c2ccccc21` [Example 147, 4-(1-((3-Chloro-4-((1-methyl-3-indolylcarbonyl)amino)phenyl)acetyl)-(4S)-fluoro-(2S)-pyrrolidinylmethoxy)benzoic acid], the negative logarithm of the Ki (pKi) was 7.40.

Take `O=C(Nc1cc(F)c(CC(=O)N2C[C@@H](F)C[C@H]2CO[C@H]2CC[C@H](C(=O)O)CC2)cc1Cl)c1nsc2ccccc12` [Example 85, trans-4-(1-(5-Chloro-2-fluoro-(4-((3-benzo(d)isothiazolylcarbonyl)amino)phenyl)acetyl)-(4S)-fluoro-(2S)-pyrrolidinylmethoxy)cyclohexanecarboxylic acid]: the negative logarithm of the Ki (pKi) is 8.19.

For `O=C(Nc1ccc(CC(=O)N2C[C@@H](F)C[C@H]2CO[C@H]2CC[C@H](C(=O)O)CC2)cc1Cl)c1nccc2ccccc12` [Example 80, trans-4-(1-((3-Chloro-4-((1-isoquinolinylcarbonyl)amino)phenyl)acetyl)-(4S)-fluoro-(2S)-pyrrolidinylmethoxy)cyclohexanecarboxylic acid], the pKi is 7.92.

On to `Cn1cc(C(=O)Nc2cc(F)c(CC(=O)N3C[C@@H](OC4CCCCC4)C[C@H]3CO[C@H]3CC[C@H](C(=O)O)CC3)cc2Cl)c2ccccc21` [Example 119, trans-4-(1-((5-Chloro-2-fluoro-4-(1-methyl-3-indolylcarbonylamino)phenyl)acetyl)-(4S)-cyclohexyloxy-(2S)-pyrrolidinylmethoxy)cyclohexanecarboxylic acid], for which the pKi was 8.23.

Take `CO[C@H]1C[C@@H](CO[C@H]2CC[C@H](C(=O)O)CC2)N(C(=O)Cc2ccc3nc(Nc4ccccc4Cl)oc3c2F)C1` (relative stereo) [Example 114, trans-4-(1-((2-(2-chlorophenylamino)-7-fluoro-6-benzoxazolyl)acetyl)-(4S)-methoxy-(2S)-pyrrolidinylmethoxy)cyclohexanecarboxylic acid]: the pKi is 8.32.

With `C[C@@H](CO[C@H]1CC[C@H](C(=O)O)CC1)N(C)C(=O)Cc1cc(Cl)c(NC(=O)c2cn(C)c3ccccc23)cc1F` [Example 144, trans-4-((2S)-((5-Chloro-2-fluoro-4-(1-methyl-3-indolylcarbonylamino)phenyl)-N-methylacetamido)-1-propoxy)-1-cyclohexanecarboxylic acid], the pKi is 7.32.

Regarding `Cn1cc(-c2nc3ccc(CC(=O)N4C[C@@H](F)C[C@H]4CO[C@H]4CC[C@H](C(=O)O)CC4)cc3o2)c2cc(Cl)ccc21` [Example 96, trans-4-(1-((2-(5-Chloro-1-methyl-3-indolyl)-6-benzoxazolyl)acetyl)-(4S)-fluoro-(2S)-pyrrolidinylmethoxy)cyclohexanecarboxylic acid], the pKi was 7.70.

Regarding `Cc1ccccc1Nc1nc2ccc(CC(=O)N3C[C@@H](S(=O)(=O)c4ccccc4)C[C@H]3CO[C@H]3CC[C@H](C(=O)O)CC3)cc2o1` [Example 124, trans-4-(1-((2-(2-Methylphenylamino)-6-benzoxazolyl)acetyl)-(4S)-phenylsulfonyl-(2S)-pyrrolidinylmethoxy)cyclohexanecarboxylic acid], the negative logarithm of the Ki (pKi) was 8.85.

Consider `Cn1cc(C(=O)Nc2cc(F)c(CC(=O)N3C[C@@H](F)C[C@H]3CN[C@H]3CC[C@H](C(=O)O)CC3)cc2Cl)c2ccccc21` [Example 107, trans-4-(N-(1-((5-Chloro-2-fluoro-4-((1-methyl-3-indolylcarbonyl)amino)phenyl)acetyl)-(4S)-fluoro-(2S)-pyrrolidinylmethyl)amino)cyclohexanecarboxylic acid], for which the negative logarithm of the Ki (pKi) was 7.96.

For `Cc1ccc(F)cc1Nc1nc2ccc(CC(=O)N3C[C@@H](F)C[C@H]3C(=O)N[C@H]3CC[C@H](C(=O)O)CC3)c(F)c2o1` [Example 110, trans-4-(((4S)-Fluoro-1-(2-(5-fluoro-2-methylphenylamino)-7-fluoro-6-benzoxazolylacetyl)-(2S)-pyrrolidinyl)carbonylamino)cyclohexanecarboxylic acid], the pKi was 8.15.

Take `Cn1cc(C(=O)Nc2cc(F)c(CC(=O)N3C[C@@H](S(C)(=O)=O)C[C@H]3CO[C@H]3CC[C@H](C(=O)O)CC3)cc2Cl)c2ccccc21` [Example 128, trans-4-(1-((5-Chloro-2-fluoro-4-((1-methyl-3-indolylcarbonyl)amino)phenyl)acetyl)-(4S)-methanesulfonyl-(2S)-pyrrolidinylmethoxy)cyclohexanecarboxylic acid]: the negative-log Ki (pKi) was 8.57.

Regarding `Cc1c(F)cccc1Nc1nc2ccc(CC(=O)N3C[C@@H](F)C[C@H]3CO[C@H]3CC[C@H](C(=O)O)CC3)c(F)c2o1` [Example 46, trans-4-(1-((2-(3-fluoro-2-methylphenylamino)-7-fluoro-6-benzoxazolyl)acetyl)-(4S)-fluoro-(2S)-pyrrolidinylmethoxy)cyclohexanecarboxylic acid], the pKi is 7.43.

In the case of `Cc1cc(F)ccc1Nc1nc2ccc(CC(=O)N3C[C@@H](F)C[C@H]3CO[C@H]3CC[C@H](C(=O)O)CC3)c(F)c2o1` [Example 45, trans-4-(1-((2-(4-Fluoro-2-methylphenylamino)-7-fluoro-6-benzoxazolyl)acetyl)-(4S)-fluoro-(2S)-pyrrolidinylmethoxy)cyclohexanecarboxylic acid], the pKi was 8.06.

Turning to `O=C(Nc1ccc(CC(=O)N2C[C@@H](F)C[C@H]2CO[C@H]2CC[C@H](C(=O)O)CC2)cc1Cl)c1nccc2ccc(F)cc12` [Example 82, trans-4-(1-((3-Chloro-4-((7-fluoro-1-isoquinolinylcarbonyl)amino)phenyl)acetyl)-(4S)-fluoro-(2S)-pyrrolidinylmethoxy)cyclohexanecarboxylic acid], the negative logarithm of the Ki (pKi) is 7.74.

In the case of `Cc1ccc(F)cc1Nc1nc2ccc(CC(=O)N3C[C@@H](F)C[C@H]3CO[C@H]3CC[C@H](C(=O)O)CC3)cc2o1` [Example 41, trans-4-(1-((2-(5-Fluoro-2-methylphenylamino)-6-benzoxazolyl)acetyl)-(4S)-fluoro-(2S)-pyrrolidinylmethoxy)cyclohexanecarboxylic acid], the negative logarithm of the Ki (pKi) was 8.42.

Turning to `Cn1cc(-c2nc3ccc(CC(=O)N4C[C@@H](F)C[C@H]4CO[C@H]4CC[C@H](C(=O)O)CC4)c(F)c3o2)c2cc(F)ccc21` (relative stereo) [Example 101, trans-4-(1-((2-(5-Fluoro-1-methyl-3-indolyl)-7-fluoro-6-benzoxazolyl)acetyl)-(4S)-fluoro-(2S)-pyrrolidinylmethoxy)cyclohexanecarboxylic acid], the pKi is 8.09.

For the molecule `O=C(Cc1ccc(Nc2nc3ccc(Cl)cc3s2)c(Cl)c1)N1C[C@@H](F)C[C@H]1CO[C@H]1CC[C@H](C(=O)O)CC1` [Example 59, trans-4-(1-(4-(6-Chloro-2-benzothiazolyl)amino-3-chlorophenylacetyl)-(4S)-fluoro-(2S)-pyrrolidinylmethoxy)cyclohexanecarboxylic acid], the pKi was 8.14.

For `Cn1cc(C(=O)Nc2cc(F)c(CC(=O)N3CC(F)(F)C[C@H]3CO[C@H]3CC[C@H](C(=O)O)CC3)cc2Cl)c2ccccc21` (mixture of isomers) [Example 143, trans-4-(1-(5-Chloro-2-fluoro-4-(1-methyl-3-indolylcarbonylamino)phenylacetyl)-4,4-difluoro-(2S)-pyrrolidinylmethoxy)cyclohexanecarboxylic acid and cis-4-(1-(5-chloro-2-fluoro-4-(1-methyl-3-indolylcarbonylamino)phenylacetyl)-4,4-difluoro-(2S)-pyrrolidinylmethoxy)cyclohexanecarboxylic acid], the pKi was 7.77.

With `O=C(Cc1ccc(Nc2nc3ccc(F)cc3s2)c(Cl)c1)N1C[C@@H](F)C[C@H]1CO[C@H]1CC[C@H](C(=O)O)CC1` [Example 57, trans-4-(1-(3-Chloro-4-(6-fluoro-2-benzothiazolyl)aminophenylacetyl)-(4S)-fluoro-(2S)-pyrrolidinylmethoxy)cyclohexanecarboxylic acid], the pKi was 8.14.

Take `Cc1ccccc1Nc1nc2ccc(CC(=O)N3C[C@@H](F)C[C@H]3COc3ccc(C(=O)O)cn3)cc2o1` [Example 18, 6-((4S)-Fluoro-1-(2-(2-methylphenylamino)-6-benzoxazolylacetyl)-(2S)-pyrrolidinylmethoxy)nicotinic acid]: the negative-log Ki (pKi) is 8.11.

For `Cn1cc(C(=O)Nc2cc(F)c(CC(=O)N3C[C@@H](F)C[C@H]3CO[C@H]3CC[C@H](C(=O)O)CC3)cc2Cl)c2ccc(F)cc21` [Example 73, trans-4-(1-((5-Chloro-2-fluoro-4-((6-fluoro-1-methyl-3-indolylcarbonyl)amino)phenyl)acetyl)-(4S)-fluoro-(2S)-pyrrolidinylmethoxy)cyclohexanecarboxylic acid], the pKi is 7.29.

For `Cn1cc(-c2nc3ccc(CC(=O)N4C[C@@H](F)C[C@H]4COC4CCC(C(=O)O)CC4)cc3o2)c2ccccc21` (stereo partly drawn) [Example 40, 4-((4S)-Fluoro-1-(2-(1-methyl-3-indolyl)-6-benzoxazolylacetyl)-(2S)-pyrrolidinylmethoxy)cyclohexanecarboxylic acid], the pKi is 8.72.
